Data from patent US20250143995A1, “ACTIVE AGENT MODULATING THE ACTIVITY OF AN ION CHANNEL FOR USE IN REGULATION OF SKIN PIGMENTATION” (Cutaneon - Skin & Hair Innovations GmbH, priority 2022, published 2025).

Tests used:
Assay type in all cases: cell-based
tyrosinase = test: In situ tyrosinase activity in ex vivo human skin organ culture; settings: after 3 days
Method: (§1) Samples of human abdominal, temporal, and occipital skin were obtained with written patient consent and under ethical approval from healthy adult human subjects during elective plastic surgery performed for cosmetic reasons. Full-thickness human skin samples were prepared as 4-6 mm punches, placed on filter paper, and cultured at the air-liquid interphase under serum-free conditions in William's E medium supplemented only with insulin, hydrocortisone and L-glutamine, as described previously. […]
(§2) Images were then obtained with a digital microscope (Keyence). Quantitative histomorphometric analysis was performed by assessing the relative intensity and the area of melanin stain in standardized reference areas with ImageJ (NIH; Bethesda, MD, USA). Briefly, for each parameter evaluated, multiple non-consecutive skin sections (at least 280 μm apart from each other) per punch biopsy were stained. Two skin punch biopsies were analyzed per experimental group unless indicated otherwise. The melanin content was then calculated based on the product of the fraction of area occupied by melanin and the mean shade of gray of the melanin, as described in detail elsewhere. […]

gp100 = test: gp100-specific immunoreactivity in ex vivo human skin organ culture; settings: after 3 days
Method: as §1, §2

human skin organ culture [1] = test: Epidermal melanin by Fontana Masson histochemistry in ex vivo human skin organ culture
Method: Samples of human abdominal, temporal, and occipital skin were obtained with written patient consent and under ethical approval from healthy adult human subjects during elective plastic surgery performed for cosmetic reasons. Full-thickness human skin samples were prepared as 4-6 mm punches, placed on filter paper, and cultured at the air-liquid interphase under serum-free conditions in William's E medium supplemented only with insulin, hydrocortisone and L-glutamine, as described previously.
For topical application of 2,5-dimethylpyrazine (DMP) (Sigma), a TRPM5 activator, a stock was prepared in ethanol and dissolved at 37° C. at a final concentration of 12.5 mM in a 50% v/v solution of Isopropanol in PBS containing 1 g/mL of Polyethylene glycol 6000. For topical application of triphenylphosphine oxide (TPPO) (Sigma), and TRPM5 inhibitor, a stock was prepared in ethanol and dissolved at 37° C. at a final concentration of 1.5 mM in a 50% v/v solution of Isopropanol in PBS containing 1 g/mL of Polyethylene glycol 6000. […]
as §2
For Fontana Masson stain, ethanol/acetic acid-fixed human skin/HF frozen sections were rinsed in two and three washes of Tris-buffered saline and distilled water, respectively. […] Image acquisition and quantitative histomorphometric analysis were performed similar to as described for the Warthin-Starry technique.

human skin organ culture [2] = test: Epidermal melanin by Warthin-Starry histochemistry in ex vivo human skin organ culture; settings: topical DMP 12.5 mM
Method: as §1, §2

[3] = topical DMP 12.5 mM, compared to vehicle
[4] = TPPO 1.5 mM combined with DMP 12.5 mM, topical

| intensity level of tyrosinase activity in the basal epidermal layers (tyrosinase; [3]) | effect on the DMP-induced increase of tyrosinase activity in the basal epidermal layers (tyrosinase; [4]) | SMILES | intensity level of gp100-specific IR in the basal epidermal layers (gp100; [3]) | melanin content in the basal layer and in the suprabasal layers (Fontana-Masson technique) (human skin organ culture [1]; topical DMP 12.5 mM, 3 days) | epidermal melanin content (Fontana-Masson technique) (human skin organ culture [1]; topical DMP 12.5 mM, after 3 days, compared to vehicle) | melanin content in the basal layer and in the suprabasal layers (Warthin-Starry technique) (human skin organ culture [2]; 3 days) | epidermal melanin content (Warthin-Starry technique) (human skin organ culture [2]; after 3 days, compared to vehicle) | effect on the DMP-induced increase of gp100-specific IR in the basal epidermal layers (gp100; [4]) | effect on the DMP-induced increase of epidermal melanin content (Fontana-Masson technique) (human skin organ culture [1]; TPPO 1.5 mM combined with DMP 12.5 mM, topical, after 3 days) |
| --- | --- | --- | --- | --- | --- | --- | --- | --- | --- |
| markedly increases |  | Cc1cnc(C)cn1 [DMP, 2,5-dimethylpyrazine] | markedly increases | increased | markedly increases | increased | markedly increases |  |  |
|  | prevented the effect | O=P(c1ccccc1)(c1ccccc1)c1ccccc1 [TPPO, triphenylphosphine oxide] |  |  |  |  |  | prevented the effect | prevented the effect |
